Results taken from patent publication US7189851B2, “Condensed heterocyclic compounds as calcitonin agonists” (SmithKline Beecham Corporation, priority 2002, dated 2007).

Biological target: T1, human calcitonin-2 receptor (hCT2R) (Homo sapiens, UniProt P30988)
T1 construct: expressed in transfected cells; host or cells: Chinese hamster ovary (CHO) cells co-transfected with a 6CRE-luciferase reporter; receptor cDNA cloned from the MCF7 cell line
T1 sequence (P30988 25-474): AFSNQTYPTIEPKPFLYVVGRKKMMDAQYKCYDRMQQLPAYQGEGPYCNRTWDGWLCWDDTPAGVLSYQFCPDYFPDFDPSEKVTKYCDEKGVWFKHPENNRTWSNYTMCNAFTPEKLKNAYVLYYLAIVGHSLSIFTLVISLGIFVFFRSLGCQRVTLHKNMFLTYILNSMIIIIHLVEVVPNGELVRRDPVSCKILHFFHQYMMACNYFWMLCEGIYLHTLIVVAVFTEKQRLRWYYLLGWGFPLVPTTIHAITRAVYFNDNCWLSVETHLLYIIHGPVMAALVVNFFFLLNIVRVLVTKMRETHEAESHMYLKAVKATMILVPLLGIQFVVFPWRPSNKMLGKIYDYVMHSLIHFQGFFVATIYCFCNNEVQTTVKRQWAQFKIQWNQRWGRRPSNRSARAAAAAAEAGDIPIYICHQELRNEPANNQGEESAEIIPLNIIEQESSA
Assay: HCT2R CRE-luc reporter assay
Format: cell-based
Conditions: agonist activity; CHO-6CRE-luciferase cells co-transfected with hCT2R
Method: The compounds of the present invention elicit important and measurable pharmacological responses. As is to be expected, the efficacy of any compound will vary depending upon the particular assay and the particular compound tested.
All recombinant cell line human calcitonin receptor assays were carried out with the human receptor corresponding to GeneBank Accession Number X69920, [See: Molecular Pharmacology 46 (2):246–255, 1994, Cloning and characterization of an abundant subtype of the human calcitonin receptor] cloned from the MCF7 cell line (American Type Tissue Collection, Manassas, Va., USA, Catalog # HTB-22). Human calcitonin receptor (hCT2R) was cloned as a HindIII fragment into plasmid BS SKII. Chinese hamster ovary cells were co-transfected with a 6CRE-luciferase reporter system and hCTR2. HEK cells were transfected with hCTR2.
CHO-6CRE-luciferase cells with or without co-expressed hCTR2 were grown in suspension in commercially available cell culture medium supplemented with 2 mM L-glutamine and 5% fetal bovine serum (FBS). Sixteen hours before each assay, cells were collected and resuspended at 1,000,000 cells/ml in media without FBS. Cells were cultured in spinner flasks at 37° C. in an atmosphere of 5% CO2. At the time of the assay, cells were pelleted by centrifugation and resuspended in media without FBS at a concentration of 250,000 cells/ml. The cell suspension was pipetted into black 96-well microtiter plates (25,000 cells/well) containing test compounds. After a four-hour incubation at 37° C., media was aspirated, followed by addition of 50 microliters of LucLite and PBS (1:1) containing 1 mM CaCl2 and 1 mM MgCl2. The plates were sealed and incubated for 20 minutes in the dark. Luminescent responses were measured using a Packard TopCount.
Structure activity studies were performed on CHO-6CRE-luciferase cells with or without co-transfected hCT2R. Forty-eight hours before each assay, cells were removed with trypsin and plated in 96-well microtiter plates at a concentration of 25–100,000 cells/well. Sixteen hours before each assay, FBS-containing media was removed and replaced with media without FBS. Compounds were added and incubated for four hours at 37° C. After incubation, media was aspirated and 50 microliters of LucLite in PBS (1:1) containing 1 mM CaCl2 and 1 mM MgCl2 were added to each well. Plates were sealed and incubated for 20 minutes in the dark before quantification of luminescence on a Packard TopCount.
Concentration-response curves were calculated and potencies were reported as the concentration of compounds producing half-maximal responses (EC50) or the negative log of the concentration of compounds producing half-maximal responses (pEC50).

Work on `N#Cc1c(CCc2ccc(C(F)(F)F)cc2)nc2c(c1-c1ccc(C(=O)NCc3ccco3)cc1)C(=O)N1CCC[C@@H]21` [Example 28, 4-((9aS)-3-Cyano-5-oxo-2-{2-[4-(trifluoromethyl)phenyl]ethyl}-7,8,9,9a-tetrahydro-5H-pyrido[2,3-α]pyrrolizin-4-yl)-N-(2-furylmethyl)benzamide] yielded an EC50 of 100 to 1000 nM.

`CC(=O)c1c(CCc2ccc(F)cc2)nc2c(c1-c1ccc(C(=O)NCc3ccco3)cc1)C(=O)N1CCC[C@@H]21` [Example 29, 4-{(9aS)-3-acetyl-2-[2-(4-fluorophenyl)ethyl]-5-oxo-7,8,9,9a-tetrahydro-5H-pyrido[2,3-α]pyrrolizin-4-yl}-N-(2-furylmethyl)benzamide] was tested, and the EC50 was 10 to 100 nM.

For `Cc1nc2c(c(-c3ccc(C(=O)NCc4ccco4)cc3)c1C(=O)CCc1ccc(F)cc1)C(=O)N1CCC[C@@H]21` [Example 30, 4-{(9aS)-3-[3-(4-fluorophenyl)propanoyl]-2-methyl-5-oxo-7,8,9,9a-tetrahydro-5H-pyrido[2,3-α]pyrrolizin-4-yl}-N-(2-furylmethyl)benzamide], the EC50 was 100 to 1000 nM.

`O=C(NCc1ccco1)c1ccc(-c2c(C(=O)c3ccco3)c(CCc3ccc(F)cc3)nc3c2C(=O)N2CCC[C@@H]32)cc1` [Example 31, 4-[(9aS)-2-[2-(4-fluorophenyl)ethyl]-3-(2-furoyl)-5-oxo-7,8,9,9a-tetrahydro-5H-pyrido[2,3-α]pyrrolizin-4-yl]-N-(2-furylmethyl)benzamide] was tested, and the EC50 was no more than 10 nM.

In the case of `O=C(N[C@@H]1CCc2ccccc21)c1ccc(-c2c3c(nc4c2C(=O)N2CCC[C@@H]42)CC(c2ccc(F)cc2)CC3=O)cc1` (stereo partly drawn) [Example 32, 4-[(3aS)-6-(4-Fluorophenyl)-8,10-dioxo-2,3,3a,5,6,7,8,10-octahydro-1H-pyrrolizino[1,2-b]quinolin-9-yl]-N-[(1R)-2,3-dihydro-1H-inden-1-yl]benzamide], the EC50 is reported as no less than 1000 nM.

`CCOC(=O)c1c(CCc2ccc(C(F)(F)F)cc2)nc2c(c1-c1ccc(C(=O)NCc3ccco3)cc1)C(=O)N1CSC[C@@H]21` [Example 34, Ethyl (9aR)-4-(4-{[(2-furylmethyl)amino]carbonyl}phenyl)-5-oxo-2-{2-[4-(trifluoromethyl)phenyl]ethyl}-9,9a-dihydro-5H-[1,3]thiazolo[3′,4′:1,2]pyrrolo[3,4-b]pyridine-3-carboxylate] gave an EC50 of no more than 10 nM.

In the case of `CCOC(=O)c1c(CCc2ccc(C(F)(F)F)cc2)nc2c(c1-c1ccc(C(=O)NCc3ccco3)cc1)C(=O)N1CS(=O)(=O)C[C@@H]21` [Example 35, Ethyl (9aR)-4-(4-{[(2-furylmethyl)amino]carbonyl}phenyl)-5-oxo-2-{2-[4-(trifluoromethyl)phenyl]ethyl}-9,9a-dihydro-5H-[1,3]thiazolo[3′,4′:1,2]pyrrolo[3,4-b]pyridine-3-carboxylate 8,8-dioxide], the EC50 is reported as 10 to 100 nM.

Compound `CCOC(=O)c1c(CCc2ccc(C(F)(F)F)cc2)nc2c(c1-c1ccc(CC(=O)NCc3ccco3)cc1)C(=O)N1CCC[C@@H]21` [Example 37, Ethyl (9aS)-4-(4-{2-[(2-furylmethyl)amino]-2-oxoethyl}phenyl)-5-oxo-2-{2-[4-(trifluoromethyl)phenyl]ethyl}-7,8,9,9a-tetrahydro-5H-pyrido[2,3-α]pyrrolizine-3-carboxylate] has an EC50 of 100 to 1000 nM.

With `CCOC(=O)c1c(Cc2ccc(F)cc2)nc2c(c1-c1ccc(C(=O)NCc3ccco3)nn1)C(=O)N1CCCC21` (stereo not drawn) [Example 39, Ethyl 2-(4-fluorobenzyl)-4-(6-{[(2-furylmethyl)amino]carbonyl}-3-pyridazinyl)-5-oxo-7,8,9,9a-tetrahydro-5H-pyrido[2,3-α]pyrrolizine-3-carboxylate] the EC50 was 10 to 100 nM.

Work on `CCOC(=O)c1c(CCc2ccc(F)cc2)nc2c(c1-c1ccc(C)cc1)C(=O)N1CCC[C@@H]21` [Example 40, Ethyl (9aS)-2-[2-(4-fluorophenyl)ethyl]-4-(4-methylphenyl)-5-oxo-7,8,9,9a-tetrahydro-5H-pyrido[2,3-α]pyrrolizine-3-carboxylate] yielded an EC50 of 100 to 1000 nM.

For `CCOC(=O)c1c(CCc2ccc(C(F)(F)F)cc2)nc2c(c1-c1ccc(C(=O)NCCCn3ccnc3)cc1)C(=O)N1CCC[C@@H]21` [Example 41, Ethyl (9aS)-4-[4-({[3-(1H-imidazol-1-yl)propyl]amino}carbonyl)phenyl]-5-oxo-2-{2-[4-(trifluoromethyl)phenyl]ethyl}-7,8,9,9a-tetrahydro-5H-pyrido[2,3-α]pyrrolizine-3-carboxylate], the EC50 was 100 to 1000 nM.

With `CCOC(=O)c1c(CCc2ccc(C(F)(F)F)cc2)nc2c(c1-c1ccc(C(=O)NCCc3cnc[nH]3)cc1)C(=O)N1CCC[C@@H]21` [Example 42, Ethyl (9aS)-4-[4-({[2-(1H-imidazol-5-yl)ethyl]amino}carbonyl)phenyl]-5-oxo-2-{2-[4-(trifluoromethyl)phenyl]ethyl}-7,8,9,9a-tetrahydro-5H-pyrido[2,3-α]pyrrolizine-3-carboxylate] the EC50 was 100 to 1000 nM.

`CCOC(=O)c1c(CCCC(C)C)nc2c(c1-c1ccc(C(=O)N[C@@H]3CCc4ccccc43)cc1)C(=O)N1CCC[C@@H]21` [Example 43, Ethyl (9aS)-4-(4-{[(1R)-2,3-dihydro-1H-inden-1-ylamino]carbonyl}phenyl)-2-(4-methylpentyl)-5-oxo-7,8,9,9a-tetrahydro-5H-pyrido[2,3-α]pyrrolizine-3-carboxylate] showed an EC50 of no more than 10 nM.

`CCOC(=O)c1c(CCC(F)(F)F)nc2c(c1-c1ccc(C(=O)N[C@@H]3CCc4ccccc43)cc1)C(=O)N1CCC[C@@H]21` [Example 44, Ethyl (9aS)-4-(4-{[(1R)-2,3-dihydro-1H-inden-1-ylamino]carbonyl}phenyl)-5-oxo-2-(3,3,3-trifluoropropyl)-7,8,9,9a-tetrahydro-5H-pyrido[2,3-α]pyrrolizine-3-carboxylate] was tested, and the EC50 was 10 to 100 nM.

`CCOC(=O)c1c(Cc2ccc(F)cc2F)nc2c(c1-c1ccc(C(=O)NN3CCc4ccccc43)cc1)C(=O)N1CCC[C@@H]21` [Example 45, Ethyl (9aS)-2-(2,4-difluorobenzyl)-4-{4-[(2,3-dihydro-1H-indol-1-ylamino)carbonyl]phenyl}-5-oxo-7,8,9,9a-tetrahydro-5H-pyrido[2,3-α]pyrrolizine-3-carboxylate] showed an EC50 of 10 to 100 nM.

Work on `CCOC(=O)c1c(Cc2ccc(F)cc2)nc2c(c1-c1ccc(CNC(=O)c3ccccc3)s1)C(=O)N1CCC[C@@H]21` [Example 46, Ethyl (9aS)-4-{5-[(benzoylamino)methyl]-2-thienyl}-2-(4-fluorobenzyl)-5-oxo-7,8,9,9a-tetrahydro-5H-pyrido[2,3-α]pyrrolizine-3-carboxylate] yielded an EC50 of 100 to 1000 nM.

Compound `CCOC(=O)c1c(CCc2ccc(C(F)(F)F)cc2)nc2c(c1-c1ccc(CNC(=O)c3cccnc3)s1)C(=O)N1CCC[C@@H]21` [Example 47, Ethyl (9aS)-5-oxo-4-(5-{[(3-pyridinylcarbonyl)amino]methyl}-2-thienyl)-2-{2-[4-(trifluoromethyl)phenyl]ethyl}-7,8,9,9a-tetrahydro-5H-pyrido[2,3-α]pyrrolizine-3-carboxylate] has an EC50 of 10 to 100 nM.

For `CCOC(=O)c1c(CCc2ccc(F)cc2)cc2c(c1-c1ccc(C(=O)OCc3ccccc3)cc1)C(=O)N1CCC[C@@H]21` [Example 48, Ethyl (9bS)-6-{4-[(benzyloxy)carbonyl]phenyl}-8-[2-(4-fluorophenyl)ethyl]-5-oxo-2,3,5,9b-tetrahydro-1H-pyrrolo[2.1-a]isoindole-7-carboxylate], the EC50 was no less than 1000 nM.

With `CCOC(=O)c1c(CCc2ccc(F)cc2)cc2c(c1-c1ccc(C(=O)O)cc1)C(=O)N1CCC[C@@H]21` [Example 49, 4-{(9bS)-7-(ethoxycarbonyl)-8-[2-(4-fluorophenyl)ethyl]-5-oxo-2,3,5,9b-tetrahydro-1H-pyrrolo[2,1-α]isoindol-6-yl}benzoic acid] the EC50 was no less than 1000 nM.
